No end group written: not given here.
Tested on: mouse IL-4
Experiment: PT-18 proliferation assay (WST-1), IL-4
Assay type: cell-based
Conditions: murine PT-18 cells, mouse IL-4, BNZ132-1 50 nM, 500 nM, 5 μM
Experimental: FIG. 6A-FIG. 6E presents inhibitory spectrum of BNZ132-1 over γc- and non-γc-cytokines. […] Neutralizing antibodies against each cytokine (R & D systems, 5 μg ml^−1) were included as controls. After 20 h, the cells were pulsed with WST-1 (Clontech) and OD450 of each well was measured after 6 h. A 19-mer scrambled peptide was used as a negative control at 5 μM. The experiments were conducted in triplicate (applies to all experiments in FIG. 6A-FIG. 6E). The result represents one of at least three independent experiments (applies to all experiments in FIG. 6A-FIG. 6E). […] In PT-18 proliferation assay, PT-18β or PT-18h21Rα cells were withdrawn of mouse IL-3 for 12 h before the experiment. Cells were then incubated with 1 nM of mouse IL-4, mouse IL-9, or mouse IL-21 in the presence or absence of the indicated doses (μM) of BNZ132-1. Neutralizing antibodies to each cytokine (5 μg ml^−1, except for anti-mouse IL-21 polyclonal antibody which was used at 15 μg ml−1) and a scrambled control peptide (5 μM) were included as negative controls. WST-1 assay was conducted as described above. […] In PT-18 h21Rα survival assay, PT-18h21Rα cells are described in the text. […] Both parental and hIL-21Rα positive PT-18 cells were washed and incubated without IL-3 for 12 h before the assay. […] The Y-axis represents the cpm (count per minute) values measured by a β-counter. […]

With IKEFLQRFIHIVQSIINTS [BNZ132-1] the “inhibition of IL-4-induced proliferation of PT-18 cells” value was “did not inhibit”.

Reference: patent US10854312B2, “Selective peptide antagonists” (BIONIZ, LLC, priority 2013, dated 2020)
